In publication PMC9866191, “Novel 9-Benzylaminoacridine Derivatives as Dual Inhibitors of Phosphodiesterase 5 and Topoisomerase II for the Treatment of Colon Cancer” (Molecules, 2023):

How the values were obtained:
LOX IMVI = test: NCI-60 one-dose screen; format: cell-based; settings: Homo sapiens, Melanoma panel, single dose 10^−5 M, read-out: Growth inhibition %
SNB-19 = test: NCI-60 one-dose screen; format: cell-based; settings: Homo sapiens; SNB-19, CNS Cancer panel; single dose 10^−5 M; read-out: Growth inhibition %
Experimental: (§1) The newly synthesized compounds were screened for their in vitro anticancer activity at the Developmental Therapeutic Program (DTP) of the National Cancer Institute (NCI). The screening involved a panel of 60 human tumor cell lines consisting of 9 tissue types to screen for potential anti-cancer agents. The primary screening of submitted compounds was performed by testing a single dose (10^−5 M) in the full NCI-60 panel. The detailed % inhibition by the tested compounds against the 60 cell lines is shown in Tables S1–S3 in the Supporting Information.

SK-MEL-2 = test: NCI-60 one-dose screen; format: cell-based; settings: Homo sapiens; SK-MEL-2, Melanoma panel; single dose 10^−5 M; read-out: Growth inhibition %
Experimental: as §1

NCI-H460 = test: NCI-60 one-dose screen; format: cell-based; settings: Homo sapiens; NCI-H460, Non-small cell lung panel; single dose 10^−5 M; read-out: Growth inhibition %
Experimental: as §1

SW-620 = test: NCI-60 one-dose screen; format: cell-based; settings: Homo sapiens; SW-620, Colon Cancer panel; single dose 10^−5 M; read-out: Growth inhibition %
Experimental: as §1

MDA-MB-231/ATCC = test: NCI-60 one-dose screen; format: cell-based; settings: Homo sapiens, Breast Cancer panel, single dose 10^−5 M, read-out: Growth inhibition %
Experimental: as §1

NCI-H226 = test: NCI-60 one-dose screen; format: cell-based; settings: Homo sapiens; NCI-H226, Non-small cell lung panel; single dose 10^−5 M; read-out: Growth inhibition %
Experimental: as §1

BT-549 = test: NCI-60 one-dose screen; format: cell-based; settings: Homo sapiens; BT-549, Breast Cancer panel; single dose 10^−5 M; read-out: Growth inhibition %
Experimental: as §1

K-562 = test: NCI-60 one-dose screen; format: cell-based; settings: Homo sapiens, K562; K-562, Leukemia panel; single dose 10^−5 M; read-out: Growth inhibition %
Experimental: as §1

SK-OV-3 = test: NCI-60 one-dose screen; format: cell-based; settings: Homo sapiens; SK-OV-3, Ovarian Cancer panel; single dose 10^−5 M; read-out: Growth inhibition %
Experimental: as §1

ACHN = test: NCI-60 one-dose screen; format: cell-based; settings: Homo sapiens, Renal Cancer panel, single dose 10^−5 M, read-out: Growth inhibition %
Experimental: as §1

HT29 = test: NCI-60 one-dose screen; format: cell-based; settings: Homo sapiens, HT-29; HT29, Colon Cancer panel; single dose 10^−5 M; read-out: Growth inhibition %
Experimental: as §1

RXF 393 = test: NCI-60 one-dose screen; format: cell-based; settings: Homo sapiens; RXF 393, Renal Cancer panel; single dose 10^−5 M; read-out: Growth inhibition %
Experimental: as §1

DU-145 = test: NCI-60 one-dose screen; format: cell-based; settings: Homo sapiens; DU-145, Prostate Cancer panel; single dose 10^−5 M; read-out: Growth inhibition %
Experimental: as §1

PC-3 = test: NCI-60 one-dose screen; format: cell-based; settings: Homo sapiens; PC-3, Prostate Cancer panel; single dose 10^−5 M; read-out: Growth inhibition %
Experimental: as §1

SK-MEL-28 = test: NCI-60 one-dose screen; format: cell-based; settings: Homo sapiens; SK-MEL-28, Melanoma panel; single dose 10^−5 M; read-out: Growth inhibition %
Experimental: as §1

U251 = test: NCI-60 one-dose screen; format: cell-based; settings: Homo sapiens, U-251; U251, CNS Cancer panel; single dose 10^−5 M; read-out: Growth inhibition %
Experimental: as §1

KM12 = test: NCI-60 one-dose screen; format: cell-based; settings: Homo sapiens; KM12, Colon Cancer panel; single dose 10^−5 M; read-out: Growth inhibition %
Experimental: as §1

SF-539 = test: NCI-60 one-dose screen; format: cell-based; settings: Homo sapiens; SF-539, CNS Cancer panel; single dose 10^−5 M; read-out: Growth inhibition %
Experimental: as §1

NCI-H322M = test: NCI-60 one-dose screen; format: cell-based; settings: Homo sapiens, Non-small cell lung panel, single dose 10^−5 M, read-out: Growth inhibition %
Experimental: as §1

MDA-MB-468 = test: NCI-60 one-dose screen; format: cell-based; settings: Homo sapiens; MDA-MB-468, Breast Cancer panel; single dose 10^−5 M; read-out: Growth inhibition %
Experimental: as §1

RPMI-8226 = test: NCI-60 one-dose screen; format: cell-based; settings: Homo sapiens; RPMI-8226, Leukemia panel; single dose 10^−5 M; read-out: Growth inhibition %
Experimental: as §1

SNB-75 = test: NCI-60 one-dose screen; format: cell-based; settings: Homo sapiens; SNB-75, CNS Cancer panel; single dose 10^−5 M; read-out: Growth inhibition %
Experimental: as §1

CCD-966SK = test: MTT cell proliferation assay, CCD-966SK; settings: CCD966SK skin fibroblast, 72 h MTT; for IC50: read-out: IC50 μM
[1] = tested on: panel of 60 human tumor cell lines; test: NCI 60-cell line one-dose screen (mean); format: cell-based; settings: mean of the 60 cell lines, single dose 10^−5 M, read-out: Mean % Growth Inhibition
Experimental: as §1

PDE5A = biological target: T1, PDE5A (Homo sapiens, UniProt O76074); test: Phosphodiesterase 5 HTRF cGMP assay; format: biochemical; settings: for IC50: means ± S.D. (n = 4), read-out: PDE5 IC50; for inhibition at 10 µM: read-out: PDE5 % Inhibition at 10 μM
T1 construct: purchased BPS Bioscience, San Diego, CA, USA
Experimental: All the synthesized acridine derivatives were tested for their in vitro ability to inhibit PDE5A at a screening dose of 10 µM.
The enzyme activities of phosphodiesterase 5 (PDE5) were measured using an HTRF cGMP assay kit (Cisbio, Codolet, France). […] Afterward, the HTRF reagent (cGMP-d2 and anti-cGMP-cryptate) was added for 1 h at 25 °C, and PDE activity was assayed on an HTRF reader (Tecan Infinite F200 Pro).

IGROV1 = test: NCI-60 one-dose screen; format: cell-based; settings: Homo sapiens, IGROV-1; IGROV1, Ovarian Cancer panel; single dose 10^−5 M; read-out: Growth inhibition %
CCRF-CEM = test: NCI-60 one-dose screen; format: cell-based; settings: Homo sapiens, Leukemia panel, single dose 10^−5 M, read-out: Growth inhibition %

Row | SMILES | inhibition at 10 µM (LOX IMVI) | inhibition at 10 µM (SNB-19) | inhibition at 10 µM (SK-MEL-2) | inhibition at 10 µM (NCI-H460) | inhibition at 10 µM (SW-620) | inhibition at 10 µM (MDA-MB-231/ATCC) | inhibition at 10 µM (NCI-H226) | inhibition at 10 µM (BT-549) | inhibition at 10 µM (K-562) | inhibition at 10 µM (SK-OV-3) | inhibition at 10 µM (ACHN) | inhibition at 10 µM (HT29) | inhibition at 10 µM (RXF 393) | inhibition at 10 µM (DU-145) | inhibition at 10 µM (PC-3) | inhibition at 10 µM (SK-MEL-28) | inhibition at 10 µM (U251) | inhibition at 10 µM (KM12) | inhibition at 10 µM (SF-539) | inhibition at 10 µM (NCI-H322M) | also measured
1 | c1ccc(CNc2c3ccccc3nc3ccccc23)cc1 [Compound 1, Acridin-9-yl-benzyl-amine] | 80.2% | 60.6% | 39.2% | 89.7% | 75.5% | 42.1% | 48.3% | 27.2% | 87.7% | 53.3% | 81.9% | 81% | 58.1% | 51.4% | 62.8% | 14.5% | 61.5% | 69.5% | 76% | 53.7% | inhibition at 10 µM (MDA-MB-468): 80.7%; inhibition at 10 µM (RPMI-8226): 92.3%; inhibition at 10 µM (SNB-75): 35.6%; % Inhibition at 10 µM (CCD-966SK): 47.97 ± 1.96%; inhibition at 10 µM [1]: 62.7%; IC50 (PDE5A): 9.33 ± 4.62 µM; inhibition at 10 µM (PDE5A): 52.2 ± 5.87%; inhibition at 10 µM (IGROV1): 70.2%; inhibition at 10 µM (CCRF-CEM): 61%
2 | Cc1ccccc1CNc1c2ccccc2nc2ccccc12 [Compound 2, Acridin-9-yl-(2-methylbenzyl)-amine] | 90.9% | 72.9% | 59.9% | 93.1% | 86.2% | 60.1% | 68.5% | 44.1% | 95% | 59.2% | 88.4% | 91.1% | 92.2% | 69.4% | 74.4% | 41.7% | 78.7% | 83.1% | 96.7% | 71% | inhibition at 10 µM (MDA-MB-468): 94.2%; inhibition at 10 µM (RPMI-8226): 109%; inhibition at 10 µM (SNB-75): 54.7%; % Inhibition at 10 µM (CCD-966SK): 59.74 ± 0.55%; IC50 (CCD-966SK): 4.18 ± 0.36 µM; inhibition at 10 µM [1]: 77.7%; IC50 (PDE5A): 9.87 ± 2.06 µM; inhibition at 10 µM (PDE5A): 50.4 ± 3.68%; inhibition at 10 µM (IGROV1): 85.2%; inhibition at 10 µM (CCRF-CEM): 82.4%
3 | Cc1cccc(CNc2c3ccccc3nc3ccccc23)c1 [Compound 3, Acridin-9-yl-(3-methylbenzyl)-amine] | 93.8% | 70.3% | 62% | 91.3% | 82.8% | 61.3% | 59.4% | 32.7% | 98.1% | 54.7% | 84.2% | 94.8% | 102% | 66.1% | 75.1% | 41.2% | 76.3% | 74.4% | 88.3% | 59.7% | inhibition at 10 µM (MDA-MB-468): 100%; inhibition at 10 µM (RPMI-8226): 120%; inhibition at 10 µM (SNB-75): 63%; % Inhibition at 10 µM (CCD-966SK): 54.31 ± 0.98%; IC50 (CCD-966SK): 8.51 ± 0.07 µM; inhibition at 10 µM [1]: 77.2%; IC50 (PDE5A): 6.4 ± 1.89 µM; inhibition at 10 µM (PDE5A): 59.3 ± 6.18%; inhibition at 10 µM (IGROV1): 80.5%; inhibition at 10 µM (CCRF-CEM): 85.2%
4 | Cc1ccc(CNc2c3ccccc3nc3ccccc23)cc1 [Compound 4, Acridin-9-yl-(4-methylbenzyl)-amine] | 88.2% | 70.3% | 57.3% | 91.2% | 79.8% | 56.8% | 58.5% | 28.7% | 97% | 53.1% | 86% | 89.7% | 89.7% | 66.5% | 75.7% | 40.5% | 74% | 76.5% | 81.9% | 60.2% | inhibition at 10 µM (MDA-MB-468): 92.8%; inhibition at 10 µM (RPMI-8226): 111%; inhibition at 10 µM (SNB-75): 58.3%; % Inhibition at 10 µM (CCD-966SK): 38.07 ± 5.90%; inhibition at 10 µM [1]: 74.8%; IC50 (PDE5A): 4.44 ± 1.82 µM; inhibition at 10 µM (PDE5A): 74 ± 12.4%; inhibition at 10 µM (IGROV1): 80.6%; inhibition at 10 µM (CCRF-CEM): 79.1%
5 | COc1ccccc1CNc1c2ccccc2nc2ccccc12 [Compound 5, Acridin-9-yl-(2-methoxybenzyl)-amine] | 81.1% | 64.2% | 26.5% | 89.8% | 77.9% | 42.4% | 60.1% | 23% | 89.9% | 38.6% | 77.3% | 82.3% | 69.4% | 49.5% | 56.8% | 20% | 61.4% | 67.1% | 78.8% | 51.4% | inhibition at 10 µM (MDA-MB-468): 71.7%; inhibition at 10 µM (RPMI-8226): 91.9%; inhibition at 10 µM (SNB-75): 36.5%; % Inhibition at 10 µM (CCD-966SK): 6.65 ± 1.18%; inhibition at 10 µM [1]: 60.8%; IC50 (PDE5A): > 10 µM; inhibition at 10 µM (PDE5A): 45.1 ± 4.54%; inhibition at 10 µM (IGROV1): 73.7%; inhibition at 10 µM (CCRF-CEM): 62.5%
